Results as given in patent publication US12643913B2, “Mcl-1 inhibitor formulations” (AMGEN INC., priority 2020, dated 2026).
In brackets after ≈: the same amount, converted by molar mass. Read-outs that look alike come from different tables or passages of the source.

How the values were obtained:
[1] = Solubility of AMG 397 in common spray-drying solvents; type: physicochemical
Experimental: Solvent selection: The solubility of AMG 397 was measured in solvents commonly used for spray drying. […] Based on the solubility data, tetrahydrofuran (THF) was selected as a solvent for the initial spray drying-work and further work was conducted in DCM.
AMG 397 is known to form solvates with many solvents. The formation of a solvate can lead to precipitation from solution due to the lower solubility in the solvent. Care must be taken to select a solvent and concentration of AMG 397 which can be maintained for the duration of the spray-drying process. The solubility of AMG 397 was highest in DCM where concentrations >100 mg/mL were achieved. Both DCM and THF are ICH class II solvents with residual solvent limits of 600 and 720 ppm, respectively. Therefore, the residual solvent levels must be removed to below these levels during the secondary drying process.

[2] = Stability of AMG 397 in THF and DCM solution at 1 mg/mL, room temperature, amber and clear vials (peak area % at 280 nm); type: physicochemical; conditions: for Peak Area % (280 nm), AMG 397 peak RRT 1.00: 1 mg/mL, room temperature
Experimental: The stability of AMG 397 was assessed in both THF and DCM over 24 hours to cover the processing time in the solvent. The stability was assessed in both amber and clear glass vials to assess the impact of light on stability.
Light had little impact on degradation up to 72 hours in DCM.

solubility ([1]; Dichloromethane (DCM)): > 100000 µg/mL | solubility ([1]; Tetrahydrofuran (THF)): 33500 µg/mL (≈ 43800 µM) | solubility ([1]; acetone, organic solvent or mixture, read-out: Solubility): 370 µg/mL (≈ 483 µM) | solubility ([1]; ethanol, organic solvent or mixture, read-out: Solubility): 150 µg/mL (≈ 196 µM) | solubility ([1]; ethyl acetate, organic solvent or mixture, read-out: Solubility): 750 µg/mL (≈ 980 µM) | solubility ([1]; methanol, organic solvent or mixture, read-out: Solubility): 90 µg/mL (≈ 118 µM) | solubility at 24 h ([1]; organic solvent or mixture, thermodynamic from solid, THF, after 24 hours, extended stirring at room temperature, solid precipitated, read-out: Final solubility in THF): 33500 µg/mL (≈ 43800 µM) | solubility ([1]; organic solvent or mixture, thermodynamic from solid, THF, before extended stirring, read-out: Solubility in THF, initially): > 50000 µg/mL | solubility ([1]; organic solvent or mixture, DCM, concentrations achieved, read-out: Solubility in DCM): > 100000 µg/mL | Solubility in THF in the presence of water ([1]; various ratios of THF-water): drops significantly | solubility ([1]; water, read-out: Solubility): 7 µg/mL (≈ 9.14 µM) | Peak Area % (280 nm), AMG 397 peak RRT 1.00 ([2]; DCM, 2 Hrs, Amber): 99.49% | Peak Area % (280 nm), AMG 397 peak RRT 1.00 ([2]; DCM, 2 Hrs, Clear): 99.47% | Peak Area % (280 nm), AMG 397 peak RRT 1.00 ([2]; DCM, 4 Hrs, Amber): 99.44% | Peak Area % (280 nm), AMG 397 peak RRT 1.00 ([2]; DCM, 4 Hrs, Amber (second 4 Hrs column)): 99.52% | Peak Area % (280 nm), AMG 397 peak RRT 1.00 ([2]; DCM, 24 Hrs, Amber): 99.44% | Peak Area % (280 nm), AMG 397 peak RRT 1.00 ([2]; DCM, 24 Hrs, Clear): 99.48% | Peak Area % (280 nm), AMG 397 peak RRT 1.00 ([2]; DCM, 72 Hrs, Amber): 99.13% | Peak Area % (280 nm), AMG 397 peak RRT 1.00 ([2]; DCM, 72 Hrs, Clear): 98.78% | Peak Area % (280 nm), AMG 397 peak RRT 1.00 ([2]; DCM, Initial): 99.52% | Stability in DCM ([2]; DCM, up to 24 hours at room temperature): stable | Peak Area % (280 nm), AMG 397 peak RRT 1.00 ([2]; THF, 2 Hrs, Amber): 99.41% | Peak Area % (280 nm), AMG 397 peak RRT 1.00 ([2]; THF, 2 Hrs, Clear): 98.98% | Peak Area % (280 nm), AMG 397 peak RRT 1.00 ([2]; THF, 4 Hrs, Amber): 99.51% | Peak Area % (280 nm), AMG 397 peak RRT 1.00 ([2]; THF, 4 Hrs, Clear): 97.51% | Peak Area % (280 nm), AMG 397 peak RRT 1.00 ([2]; THF, 24 Hrs, Amber): 98.62% | Peak Area % (280 nm), AMG 397 peak RRT 1.00 ([2]; THF, 24 Hrs, Clear): 92.68% | Peak Area % (280 nm), AMG 397 peak RRT 1.00 ([2]; THF, 72 Hrs, Amber): 97.20% | Peak Area % (280 nm), AMG 397 peak RRT 1.00 ([2]; THF, 72 Hrs, Clear): 90.59% | Peak Area % (280 nm), AMG 397 peak RRT 1.00 ([2]; THF, Initial): 99.52% | Stability in THF ([2]; THF, presence of light accelerated degradation): unstable
Structure (SMILES): CO[C@]1(CN2CCN3CCCC[C@@H]3C2)/C=C/C[C@H](C)[C@@H](C)S(=O)(=O)NC(=O)c2ccc3c(c2)N(C[C@@H]2CC[C@H]21)C[C@@]1(CCCc2cc(Cl)ccc21)CO3 [AMG 397, (1S,3′R,6′R,7′R,8′E,11'S,12′R)-6-chloro-7′-methoxy-11′,12′-dinethyl-7′-((9aR)-octahydro-2H-pyrido[1,2-a]pyrazin-2-ylmethyl)-3,4-dihydro-2H,15′H-spiro[naphthalene-1,22′-[20]oxa[13]thia[1,14]diazatetracyclo [14.7.2.0^3,6.0^19,24]pentacosa[8,16,18,24]tetraen]-15′-one 13′,13′-dioxide]
